# Test results taken from PMC10108821, “Three tyrosine kinase inhibitors cause cardiotoxicity by inducing endoplasmic reticulum stress and inflammation in cardiomyocytes” (BMC Medicine, 2023).
# Read-outs that look alike come from different tables or passages of the source.
# Experiments:
# NRCMs [1] = experiment: Seahorse assay: oxygen consumption and extracellular acidification; format: cell-based, rat; settings: 24 h; fixed doses: 10 µM, crizotinib and ponatinib 3.16 µM
# rat left ventricles = experiment: Rat gavage cardiotoxicity model: qRT-PCR in left ventricles; format: in vivo; settings: ponatinib 15 mg/kg, sorafenib 50 mg/kg gavage, 3 or 7 days
# Procedure: All experiments were performed in accordance with relevant guidelines and regulations approved by the Institutional Animal Care and Use Committee (IACUC) at Peking University Health Science Center. Sprague-Dawley rats (170-200g) were purchased from Beijing Vital River Laboratory Animal Technology. Forty-eight male rats were randomly divided into six groups, with 8 animals per group. […] The gavage was done daily starting at 10am. At the end of the experiments, rats were euthanized by CO2 about 5~6 hours after the last gavage, and then hearts were harvested for further study. Left ventricular muscle was dissected and divided into 3 parts with similar size, one of which was used for RNA extraction and qRT-PCR.
# RNA was isolated based on a standard protocol using TRIzol reagent (Vazyme). TRIzol (1ml per 1 well of a 6-well plate) was used to lyse cells and chloroform was added for RNA separation. Samples were shaked vigorously by hand for 15 seconds and incubated at room temperature for 2-3 minutes. RNA was present in the aqueous phase after centrifuge at 12000 x g for 15 minutes. Isopropyl alcohol was mixed to precipitate RNA from the aqueous phase. […] 1 μg total RNA was used for cDNA synthesis using a reverse transcription kit (Bioman). We then measured expression of genes of interest with SYBRR Green qPCR Mix (Bioman) using Applied Biosystems 7500 Quantitative PCR Instrument. […]
# NRCMs [2] = experiment: Lipid peroxidation by C11-bodipy 581/591 and flow cytometry
# Procedure: (§1) For ROS assessment, cells were washed with PBS once and stained with 10μM H2DCFHDA (MCE) in phenol red-free DMEM (Procell) in a humid incubator with 5% CO2 at 37°C for 30 minutes. Cells were washed with PBS twice and dissociated to single cells before flow cytometry analysis at the FITC channel. For lipid peroxidation measurement, cells were washed with PBS once and stained with 2μM C11-bodipy^581/591 (Cayman) in phenol red-free DMEM (Procell) in a humid incubator with 5% CO2 at 37°C for 30 minutes. Cells were washed with PBS twice and dissociated to single cells before flow cytometry analysis at both the FITC and the PE channels. Fluorescence of the oxidized C11-bodipy were acquired through the FITC channel (Ex/Em=488/520nm) and that of the non-oxidized C11-bodipy through the PE channel (Ex/Em=555/624nm).
# NRCMs [3] = experiment: Calcium staining with Calbryte 520 AM; format: cell-based, rat; settings: 0.5 and 1 h; 10 µM afatinib, 10 µM sorafenib, 5.62 µM ponatinib
# Cor.4U hiPSC-CMs [4] = system: Cor.4U hiPSC-CMs; set-up: method as in GSE114686; settings: ref GSE114686, cited from earlier work
# Cor.4U hiPSC-CMs [5] = experiment: 3'DGE-UMI RNAseq transcriptome of hiPSC-CMs
# patients = settings: cited from earlier work
# TNNT2 protein in NRCMs = experiment: TNNT2 immunofluorescence; format: cell-based, rat; settings: 24 h; 10 µM afatinib, 10 µM sorafenib, 5.62 µM ponatinib
# Procedure: Cells cultured in multi-well plates were fixed with 4% paraformaldehyde (Sigma) for 30 minutes at room temperature, washed 3 times with PBS, and permeabilized with 0.2% Tritonx100 (Applygen) for 15 minutes. Then, cells were blocked with 5% normal goat serum (Bioss) for 1-hr at room temperature and probed with primary antibodies against TNNT2 (proteintech) or NF-κB (CST) overnight at 4°C. Secondary antibodies (Jackson Immuno Research Laboratories, Inc.) and 0.4ug/mL DAPI (Coolaber) were applied at room temperature for 1 hour. Immunofluorescence pictures were taken by ImageXpress Micro Confocal-AWES (Molecular Devices).
# [6] = system: Phospho-eIF2α, XBP1s, ATF6 (cleaved); experiment: Western blot of ER stress effectors in NRCMs; format: cell-based, rat
# Procedure: Cells were homogenized in the RIPA lysis buffer (Applygen) containing protease and phosphatase inhibitor cocktails (Bimake). The extract was spun at 12,000xg for 20min at 4°C. Total protein was measured by BCA (Thermofisher) and resolved by sodium dodecyl sulfate–polyacrylamide gel electrophoresis (SDS-PAGE). Proteins were blotted to polyvinylidene difluoride membranes (Amersham). Blots were blocked with non-fat milk (BBI Life Sciences) and incubated with antibodies against ATF6 (proteintech), phospho-eIF2α (ABclonol), XBP1 (ABclonol) and GAPDH (proteintech). Goat anti-rabbit IgG, goat anti-mouse IgG were incubated with the blots for 1 hour at room temperature. After 3 washes with 1xTBST (50 mM Tris-Cl, 150 mM NaCl, 0.1% Tween 20, pH 7.5), the blots were developed with the ECL Plus Kit (Absin). Relative protein expression was quantified by optical density and normalized to GAPDH.
# NRCMs [7] = experiment: Mitochondrial membrane potential by TMRE staining; format: cell-based, rat; settings: 24 h of treatment
# Text: Fig S3 Mitochondrial membrane potential changes in response to TKIs. (A) Raw images of TMRE staining in NRCMs treated with different drugs. (B) Fold changes in mitochondrial membrane potential at different treatments.
# NRCMs [8] = experiment: ROS by H2DCFDA staining and flow cytometry; settings: 3 h; 10 µM afatinib, 10 µM sorafenib, 5.62 µM ponatinib
# Procedure: as §1
# HELP hiPSC-CMs = experiment: CardioExcyte 96 microelectrode array: base impedance and extracellular field potential; format: cell-based, human; settings: fixed doses: 10 µM, crizotinib and ponatinib 3.16 µM; up to 24 h
# Procedure, shortened: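 HELP hiPSC-CMs plated at 50,000 cells/well on 96-well microelectrode arrays, cultured 3-5 days until impedance and field potential stabilized. Recordings before and every 30~60 min after drug addition (added at 2x); beat rate, impedance amplitude, base impedance and FPDc averaged over 3 wells.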
# [9] = Sprague-Dawley, rat, 24 h, 10 µM
smiles,measurement,setting,value
CNC(=O)c1cc(Oc2ccc(NC(=O)Nc3ccc(Cl)c(C(F)(F)F)c3)cc2)ccn1 [sorafenib],basal oxygen consumption rate (OCR),NRCMs [1],significant inhibition
same,"maximal, spare and non-mitochondrial oxygen consumption",NRCMs [1],"inhibited maximal, spare, and non-mitochondrial oxygen consumption significantly"
same,gene expression of Anp,rat left ventricles,did not induce a significant change
same,change in percent of cells with high lipid peroxidation,NRCMs [2],increased slightly
same,"level of lipid peroxidation, TKI alone",NRCMs [2]; [9],94.6%
same,"level of lipid peroxidation, TKI with trolox",NRCMs [2]; [9],88%
same,cytosolic calcium concentration,NRCMs [3],significant cytosolic overload of Ca^2+
same,CHAC1 logFC,Cor.4U hiPSC-CMs [4]; Sorafenib 3.16 µM 168 hours,3.62
same,DDIT3 logFC,Cor.4U hiPSC-CMs [4]; Sorafenib 3.16 µM 168 hours,4.28
same,DNAJB9 logFC,Cor.4U hiPSC-CMs [4]; Sorafenib 3.16 µM 168 hours,1
same,TRIB3 logFC,Cor.4U hiPSC-CMs [4]; Sorafenib 3.16 µM 168 hours,5.51
same,XBP1 logFC,Cor.4U hiPSC-CMs [4]; Sorafenib 3.16 µM 168 hours,1.42
same,CHAC1 logFC,Cor.4U hiPSC-CMs [4]; Sorafenib 10 µM 24 hours,4.55
same,DDIT3 logFC,Cor.4U hiPSC-CMs [4]; Sorafenib 10 µM 24 hours,4.73
same,DNAJB9 logFC,Cor.4U hiPSC-CMs [4]; Sorafenib 10 µM 24 hours,1.43
same,TRIB3 logFC,Cor.4U hiPSC-CMs [4]; Sorafenib 10 µM 24 hours,5.56
same,XBP1 logFC,Cor.4U hiPSC-CMs [4]; Sorafenib 10 µM 24 hours,1.79
same,"expression of tRNA aminoacylation gene markers (SARS, GARS)",Cor.4U hiPSC-CMs [5]; Cluster 3,increased
same,"expression of genes associated with ER stress (ATF4, NUPR1, DDIT3, TRIB3, CHAC1, SESN2, HERPUD1)","Cor.4U hiPSC-CMs [5]; high PC1 loadings, ponatinib at high dose",upregulated
same,myocardial ischemia,patients; clinical trials,2.7–3%
same,level of cardiotoxicity based on literature reports,"patients; ref Table S1, 2, 4, 26–36",high-levels of cardiotoxicity
same,TNNT2 protein (cardiac Troponin T2),TNNT2 protein in NRCMs,had the most effect
same,duration of activated eIF2α phosphorylation,[6],6 h
same,mitochondrial membrane potential,NRCMs [7],decreased the mitochondrial membrane potential significantly
same,increase in percent of ROS-high cells,NRCMs [8],16.2%
same,"effect on beat rate, contraction, base impedance and corrected field potential duration",HELP hiPSC-CMs,stopped beating and contraction of hiPSC-CMs after 0.5 h of treatment
